Test results published in paper PMC8409970, “In vitro and in silico studies of bis (indol-3-yl) methane derivatives as potential α-glucosidase and α-amylase inhibitors” (Journal of Enzyme Inhibition and Medicinal Chemistry, 2021).
One block for each compound: values may come before it.

Experiments:
α-amylase = biological target: T1, α-amylase (Sus scrofa, UniProt P00690); assay: Inhibition mechanism study of α-amylase inhibitor (enzyme concentration plots, Lineweaver-Burk plots); format: biochemical; details: for Inhibition type against α-amylase: Lineweaver-Burk plots; for KIS value (μM) against α-amylase: binding of inhibitor to enzyme-substrate complex; for Reversibility of α-amylase inhibition: plots of enzyme concentration vs remaining enzyme activity
T1 sequence (P00690 16-511): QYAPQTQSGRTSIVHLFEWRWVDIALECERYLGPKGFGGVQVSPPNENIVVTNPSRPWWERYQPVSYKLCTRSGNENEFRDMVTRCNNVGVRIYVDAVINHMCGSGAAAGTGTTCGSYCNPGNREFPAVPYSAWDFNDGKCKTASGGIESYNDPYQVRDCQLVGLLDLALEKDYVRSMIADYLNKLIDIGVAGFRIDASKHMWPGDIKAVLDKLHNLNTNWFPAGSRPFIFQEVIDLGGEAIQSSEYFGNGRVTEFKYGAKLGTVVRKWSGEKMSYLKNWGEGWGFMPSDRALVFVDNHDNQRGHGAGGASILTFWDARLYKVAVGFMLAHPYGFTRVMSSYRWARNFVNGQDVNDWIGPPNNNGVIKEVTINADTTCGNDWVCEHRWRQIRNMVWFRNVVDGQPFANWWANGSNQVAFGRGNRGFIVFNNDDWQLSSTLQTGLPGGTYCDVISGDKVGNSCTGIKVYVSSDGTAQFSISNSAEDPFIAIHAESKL
Experimental: The highest potent inhibitory compounds 5 g, 5 h, and 5 s were evaluated their inhibition mechanism. […] Lineweaver-Burk plots were used to analyse the inhibitory kinetics of compounds 5 g, 5 h, and 5 s. […] Besides, the KI and KIS values of compounds 5 g, 5 h, and 5 s were measured, showing KI values were higher than KIS values (Table 3).
(§1) The inhibition mechanism of compounds 5 g, 5 h, and 5S was also analysed. The enzyme inhibitory kinetics was detected using plots of enzyme concentration vs remaining enzyme activity at different inhibitor concentrations, and the substrate inhibitory kinetics was obtained from Lineweaver-Burk plot of remaining enzyme activity vs substrate concentration in the presence of different inhibitor concentrations.

3T3-L1 cells = assay: In vitro cytotoxicity assay (MTT) on 3T3-L1 cells; format: cell-based, Mouse; details: 20 ∼ 80 μM, 24 h
Experimental: (§2) Moreover, the preliminary in vitro safety of compounds 5e, 5 g, 5 h, and 5 s were tested on Mouse Preadipocytes cells (3T3-L1) and Human liver cancer cells (HepG2) using MTT method and the results were shown in Figure 11.
(§3) The 3T3-L1 cells or HepG2 cells were cultured in DMEM medium containing 10% foetal bovine serum, 100 U/mL penicillin and 0.1 mg/mL streptomycin in a humidified incubator with a 5% CO2 atmosphere at 37 °C. Cells in the logarithmic growth phase were used for this assay. After 5 × 10^3 3T3-L1 cells were seeded in 96 well plates for 24 h, compound with different concentration was added into each well for 24 h. MTT reagent (100 μL, 0.5 mg/mL) was added to each well for 4 h incubation. After the supernatant was discarded, 100 μL of DMSO was added. The absorbance was measured at 490 nm. Each sample was performed in 3 parallel experiments.

HepG2 cells = assay: In vitro cytotoxicity assay (MTT) on HepG2 cells; format: cell-based, Human; details: 20 ∼ 80 μM, 24 h
Experimental: as §2, §3

α-glucosidase = α-glucosidase (Saccharomyces cerevisiae, UniProt P53341); assay: Inhibition mechanism study of α-glucosidase inhibitor (enzyme concentration plots, Lineweaver-Burk plots); format: biochemical; details: for Inhibition type against α-glucosidase: Lineweaver-Burk plots; for KIS value (μM) against α-glucosidase: binding of inhibitor to enzyme-substrate complex; for Reversibility of α-glucosidase inhibition: plots of enzyme concentration vs remaining enzyme activity
α-glucosidase, sequence (P53341 whole entry): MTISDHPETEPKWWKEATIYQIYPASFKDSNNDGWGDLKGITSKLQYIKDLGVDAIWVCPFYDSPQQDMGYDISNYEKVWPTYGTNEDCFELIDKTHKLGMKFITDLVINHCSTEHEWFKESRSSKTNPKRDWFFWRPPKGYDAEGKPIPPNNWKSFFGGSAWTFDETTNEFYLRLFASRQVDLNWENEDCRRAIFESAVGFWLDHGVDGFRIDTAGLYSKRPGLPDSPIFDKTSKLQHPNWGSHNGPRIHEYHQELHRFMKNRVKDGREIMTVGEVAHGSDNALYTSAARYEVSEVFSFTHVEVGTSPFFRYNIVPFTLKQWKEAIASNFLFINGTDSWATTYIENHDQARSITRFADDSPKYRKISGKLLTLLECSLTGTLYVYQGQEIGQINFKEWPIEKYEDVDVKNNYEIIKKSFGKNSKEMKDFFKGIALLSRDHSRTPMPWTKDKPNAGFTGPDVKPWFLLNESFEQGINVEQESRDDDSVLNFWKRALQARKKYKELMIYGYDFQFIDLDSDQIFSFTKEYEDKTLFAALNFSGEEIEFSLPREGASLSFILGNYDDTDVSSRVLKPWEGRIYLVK
Experimental: The relationship of enzyme concentration with enzyme activity in presence of compounds 5e, 5 g, and 5 h was firstly investigated.
The inhibitory kinetics of compounds 5e, 5 g, and 5 h on α-glucosidase were studied using Lineweaver-Burk plots.
Besides, we also determined the equilibrium constants of binding of inhibitors to free enzymes (KI) and enzyme-substrate complexes (KIS) through plots of slope (Km/Vm) and vertical intercept (1/Vm) vs inhibitor concentration.
as §1, with “g, 5e, and” for “g,”, “h” for “h, and 5S”, “analysed using similar above method.” for “also analysed.”, “concentrations.[32]” for “concentrations.”

Compound: COC(=O)c1ccc2[nH]cc(C(C#N)c3c[nH]c4ccc(C(=O)OC)cc34)c2c1 [Compound 5q, Dimethyl 3,3'-(cyanomethylene)bis(1H-indole-5-carboxylate)]
melting point: 259.6 to 266.9 °C

Compound: Cn1cc(C(C#N)c2cn(C)c3ccccc23)c2ccccc21 [Compound 5r, 2,2-Bis(1-methyl-1H-indol-3-yl)acetonitrile]
melting point: 70.3 to 74.6 °C

Compound: Cc1[nH]c2ccc(F)cc2c1C(C#N)c1c(C)[nH]c2ccc(F)cc12 [Compound 5n, 2,2-Bis(5-fluoro-2-methyl-1H-indol-3-yl)acetonitrile]
melting point: 183.4 to 188 °C

Compound: Cn1cc(C(C#N)c2cn(C)c3ccc(Br)cc23)c2cc(Br)ccc21 [Compound 5s, 2,2-Bis(5-bromo-1-methyl-1H-indol-3-yl)acetonitrile]
Inhibition type against α-amylase (α-amylase): Mixed type
Inhibition type against α-amylase (α-amylase; listed as 5 s): mixed inhibitors
KIS value (μM) against α-amylase (α-amylase): 9.01 µM
Reversibility of α-amylase inhibition (α-amylase): reversibly inhibited
Effect on the viability of 3T3-L1 cells (3T3-L1 cells): no effect on the viability
melting point: 177.7 to 181.7 °C
Effect on the viability of HepG2 cells (HepG2 cells): no effect on the viability

Compound: COC(=O)CNc1ccc(C(C#N)c2ccc(NCC(=O)OC)cc2)cc1 [Compound 7c, Dimethyl 2,2’-(((cyanomethylene)bis(4,1-phenylene))bis(azanediyl))diacetate]
melting point: 135.7 to 140.8 °C

Compound: N#CC(c1c[nH]c2c(Cl)cccc12)c1c[nH]c2c(Cl)cccc12 [Compound 5f, 2,2-Bis(7-chloro-1H-indol-3-yl)acetonitrile]
melting point: 162.2 to 168.8 °C

Compound: COc1ccc2[nH]cc(C(C#N)c3c[nH]c4ccc(OC)cc34)c2c1 [Compound 5p, 2,2-Bis(5-methoxy-1H-indol-3-yl)acetonitrile]
melting point: 118.5 to 123 °C

Compound: N#CC(c1c[nH]c2ccc(Br)cc12)c1c[nH]c2ccc(Br)cc12 [Compound 5g, 2,2-Bis(5-bromo-1H-indol-3-yl)acetonitrile]
Inhibition type against α-amylase (α-amylase): Mixed type
Inhibition type against α-amylase (α-amylase; listed as 5 g): mixed inhibitors
KIS value (μM) against α-amylase (α-amylase): 25.02 µM
Reversibility of α-amylase inhibition (α-amylase): reversibly inhibited
Effect on the viability of 3T3-L1 cells (3T3-L1 cells): no effect on the viability
Inhibition type against α-glucosidase (α-glucosidase): Mixed type
Inhibition type against α-glucosidase (α-glucosidase; listed as 5 g): mixed-type inhibitors
KIS value (μM) against α-glucosidase (α-glucosidase): 1.59 µM
Reversibility of α-glucosidase inhibition (α-glucosidase): reversible
Effect on the viability of HepG2 cells (HepG2 cells): no effect on the viability

Compound: Cc1[nH]c2ccccc2c1C(C#N)c1c(C)[nH]c2ccccc12 [Compound 5i, 2,2-Bis(2-methyl-1H-indol-3-yl)acetonitrile]
melting point: 231.2 to 236.6 °C

Compound: N#CC(c1c(-c2ccccc2)[nH]c2ccccc12)c1c(-c2ccccc2)[nH]c2ccccc12 [Compound 5h, 2,2-Bis(2-phenyl-1H-indol-3-yl)acetonitrile]
Inhibition type against α-amylase (α-amylase): Mixed type
Inhibition type against α-amylase (α-amylase; listed as 5 h): mixed inhibitors
KIS value (μM) against α-amylase (α-amylase): 1.63 µM
Reversibility of α-amylase inhibition (α-amylase): reversibly inhibited
Effect on the viability of 3T3-L1 cells (3T3-L1 cells): no effect on the viability
melting point: 112 to 117.9 °C
Inhibition type against α-glucosidase (α-glucosidase): Mixed type
Inhibition type against α-glucosidase (α-glucosidase; listed as 5 h): mixed-type inhibitors
KIS value (μM) against α-glucosidase (α-glucosidase): 1.69 µM
Reversibility of α-glucosidase inhibition (α-glucosidase): reversible
Effect on the viability of HepG2 cells (HepG2 cells): no effect on the viability

Compound: Cc1ccc2[nH]c(C)c(C(C#N)c3c(C)[nH]c4ccc(C)cc34)c2c1 [Compound 5o, 2,2-Bis(2,5-dimethyl-1H-indol-3-yl)acetonitrile]
melting point: 231.2 to 236.4 °C

Compound: CCOC(=O)CNc1ccc(C(C#N)c2ccc(NCC(=O)OCC)cc2)cc1 [Compound 7b, Diethyl 2,2’-(((cyanomethylene)bis(4,1-phenylene))bis(azanediyl))diacetate]
melting point: 87.5 to 93.4 °C

Second part, led by results:

melting point: 173.9 to 178.3 °C
Compound: N#CC(c1c[nH]c2ccccc12)c1c[nH]c2ccccc12 [Compound 5a, 2,2-Di(1H-indol-3-yl)acetonitrile]

melting point: 205.1 to 210.1 °C
Compound: Cc1ccc2[nH]cc(C(C#N)c3c[nH]c4ccc(C)cc34)c2c1 [Compound 5k, 2,2-Bis(5-methyl-1H-indol-3-yl)acetonitrile]

melting point: 178.4 to 183.7 °C
Compound: Cc1ccc2c(C(C#N)c3c[nH]c4cc(C)ccc34)c[nH]c2c1 [Compound 5l, 2,2-Bis(6-methyl-1H-indol-3-yl)acetonitrile]

melting point: 230 to 235.8 °C
Compound: N#CC(c1c[nH]c2cccc(Cl)c12)c1c[nH]c2cccc(Cl)c12 [Compound 5c, 2,2-Bis(4-chloro-1H-indol-3-yl)acetonitrile]

melting point: 246.2 to 250.1 °C
Compound: Cc1cccc2[nH]cc(C(C#N)c3c[nH]c4cccc(C)c34)c12 [Compound 5j, 2,2-Bis(4-methyl-1H-indol-3-yl)acetonitrile]

melting point: 168 to 173.4 °C
Compound: N#CC(c1c[nH]c2ccc(Cl)cc12)c1c[nH]c2ccc(Cl)cc12 [Compound 5d, 2,2-Bis(5-chloro-1H-indol-3-yl)acetonitrile]

melting point: 175.6 to 178.2 °C
Inhibition type against α-glucosidase (α-glucosidase): mixed-type inhibitors
KIS value (μM) against α-glucosidase (α-glucosidase): 2.11 µM
Reversibility of α-glucosidase inhibition (α-glucosidase): reversible
Compound: N#CC(c1c[nH]c2cc(Cl)ccc12)c1c[nH]c2cc(Cl)ccc12 [Compound 5e, 2,2-Bis(6-chloro-1H-indol-3-yl)acetonitrile]
Effect on the viability of 3T3-L1 cells (3T3-L1 cells): no effect on the viability
Effect on the viability of HepG2 cells (HepG2 cells): no effect on the viability

melting point: 214.1 to 219.4 °C
Compound: Cc1cccc2c(C(C#N)c3c[nH]c4c(C)cccc34)c[nH]c12 [Compound 5m, 2,2-Bis(7-methyl-1H-indol-3-yl)acetonitrile]

melting point: 182.7 to 187.5 °C
Compound: N#CC(c1c[nH]c2ccc(F)cc12)c1c[nH]c2ccc(F)cc12 [Compound 5b, 2,2-Bis(5-fluoro-1H-indol-3-yl)acetonitrile]
